Results on two substances are retold here after patent US20230204565A1, “Methods for Culturing Cancer Cells and for Inhibiting Invasion of Cancer” (The Regents of the University of California, priority 2020, published 2023).

One data set has as its system oRG cells. The data set can be described thus: Time-lapse imaging of mitotic somal translocation (MST) after shRNA knockdown, primary cortical slice culture. The data set is classed as cell-based, human. The note with it: for length of MST (somal translocation length): oRG cells during normal human development, primary slice culture, vs scrambled control hairpin. The source says:
As described by Hansen et al. (2010), human fetal brain tissue was collected and transported in artificial CSF (ACSF; 125 mm NaCl, 2.5 mm KCI, 1 mm MgCl2, 2 mm CaCl2, 1.25 mm NaH2PO4, 25 mm NaHCO3, 25 mm d-(+)-glucose, bubbled with 95%O2/5%CO2). Brain tissue was embedded in 3% low melting point agarose in ACSF and 250-300 µm coronal vibratome sections were generated. Sections were transferred on Millicell-CM slice culture inserts (Millipore) and cultured in cortical slice culture medium (66% BME, 25% Hanks, 5% FBS, 1% N-2, 1% penicillin, streptomycin and glutamine, all Invitrogen, and 0.66% d-(+)-glucose, Sigma-Aldrich). High titer gfp labeled lentivirus was applied directly to slices that were then cultured at 37° C., 5% CO2, 8% O2 for ~ 96 h. For time-lapse imaging, cultures were then transferred to an inverted Leica TCS SP5 with an on-stage incubator streaming 5% CO2, 5% O2, balance N2 into the chamber. Slices were imaged for GFP using a 10x objective at 15-30 min intervals for up to 3 d with repositioning of the z-stacks every ~12 h. Movies were analyzed with Imaris.
PTPRZ1 and its ligand, PTN, are identified in this disclosure as necessary for tumor invasion and viability. It was tested whether the expression of PTPRZ1 is required for the role of oRG-like cells in glioblastoma invasion using genetic and pharmacologic approaches. Previous work has linked PTPRZ1 and PTN with the Rho/Rho-kinase (ROCK) signaling pathway in glioblastoma. […] Given that the functional significance of key oRG markers such as PTPRZ1 remains unknown, and the role of MST has not been previously described in glioblastoma, the role of PTPRZ1/PTN signaling in oRG cell behavior was studied. shRNA mediated knock down of both PTPRZ1 and PTN in oRG cells was used during normal human development and the impact on MST was monitored. […] To relate these findings to invasive behavior, in vitro invasion assays were performed on PDX tumor samples treated with either control, scrambled shRNAs, PTPRZ1 shRNAs, or Rock inhibitor to inhibit MST.

The subject of data set [1] is DBTRGFL patient derived xenograft line. Briefly: Time-lapse imaging of MST after shRNA knockdown in PDX line. The data set is classed as cell-based, human. To be noted: 4 technical replicates. As to the method: FIG. 6A. PTPRZ1 Promotes MST driven invasiveness of glioblastoma.
Dissociated tumor cells were seeded onto matrigel coated glass bottom wells. 24 hours after plating cells were infected with a CMV-adeno-GFP virus (Vector Biolabs) to allow for visualization of cell morphology and behavior. Cell were cultured at 37° C., 5% CO2, and 8% O2, and monitored for GFP and expression (~ 24 to 48 h). Cultured cells were then transferred to an inverted Leica TCS SP5 with an on-stage incubator (while streaming 5% CO2, 5% O2, balance N2 into the chamber), and imaged in both the GFP and transmitted light channels using a × 10 objective at 15-20 min intervals for up to 4. Movies were analyzed with Imaris.

Data set [2] relates to patient derived xenograft (PDX) line DBTRGFL. The data set can be described thus: In vitro invasion assay (gap filling). The format is cell-based, human. To be noted: imaged every 24 hours, Day 0 to Day 3, vs scrambled shRNA control. As to the method:
FIG. 6B. PTPRZ1 Promotes MST driven invasiveness of glioblastoma. Invasion assays of patient derived xenograft (PDX) line DBTRGFL were performed with control (scrambled shRNA), PTPRZ1 knockdown (shRNA) and Rock Inhibition. Invasions were imaged every 24 hours, and Day 0 and Day 3 are shown. Quantification was performed by calculating how much of the gap was filled. Statistics were performed for both PTPRZ1 knockdown and Rock inhibition, and statistics are showing for Rock inhibition on top and PTPRZ1 knockdown below (* = p <0.05, ** p < 0.01, *** p < 0.001, Student’s two-sided t-test).
PTPRZ1 and its ligand, PTN, are identified in this disclosure as necessary for tumor invasion and viability. It was tested whether the expression of PTPRZ1 is required for the role of oRG-like cells in glioblastoma invasion using genetic and pharmacologic approaches. Previous work has linked PTPRZ1 and PTN with the Rho/Rho-kinase (ROCK) signaling pathway in glioblastoma. […] Given that the functional significance of key oRG markers such as PTPRZ1 remains unknown, and the role of MST has not been previously described in glioblastoma, the role of PTPRZ1/PTN signaling in oRG cell behavior was studied. shRNA mediated knock down of both PTPRZ1 and PTN in oRG cells was used during normal human development and the impact on MST was monitored. […]

The nature of data set [3]: Proliferation, cell titer blue assay. The format is cell-based. To be noted: any time point, n=5. The source says:
FIG. 12D. Transplants of primary glioblastoma tumors into cortical organoids. Proliferation as indicated by cell titer blue assay is shown for PTPRZ1 shScr (Ctrl) or shPTPRZ1 (KD). […] On the right, an invasion well with white lines added to mark the bounds of the invasion chamber.
A general note: Alamar Blue is a resazurin reagent that responds to reducing activity.

Data set [4] has as its system primary developing human cortex cells and primary glioblastoma cells. The data set can be described thus: Single-cell RNA sequencing after PTPRZ1 knockdown. The data set is classed as cell-based. To be noted: primary and glioblastoma samples. The source says: FIG. 5F. Sorting for PTPRZ1 positive cells enriches for oRG-like cells. Workflow of single-cell sequencing is shown. PTPRZ1 KD and a scrambled control were used to knockdown PTPRZ1 in both primary developing human cortex cells and primary glioblastoma cells. […] (* = p-value < 0.05). […] These changes were accompanied by a significant downregulation of several outer radial glia marker genes.
Primary cells (GW 17, n = 2) and primary tumor samples (n = 2) were dissociated and infected with lentivirus either with a hairpin against PTPRZ1 mRNA or a control hairpin during plating. Cells were maintained in their normal media conditions for 1 week, after which cells were removed from the plate with trypsinization, dissociated into a single-cell suspension, and captured with 10X v2 single-cell as previously described.
To better understand the molecular mechanism of PTPRZ1 signaling in glioblastoma tumor propagation, and to characterize how these cells differ from normal radial glia, in vitro KD was performed of PTRPZ1 in dissociated cell culture of primary developing cortex, primary tumor dissociated cell culture, and PDX dissociated cell culture. […] Each control/treatment pair was analyzed individually and the radial glia populations were isolated for further examination (FIG. 5F). […]

Another data set has as its system PTPRZ1. The data set can be described thus: Validation of knockdown (immunofluorescence, Western blot, qPCR). To be noted: vs scrambled control hairpin. The data set is classed as cell-based, human. As to the method: FIG. 12B. Transplants of primary glioblastoma tumors into cortical organoids. […] Western blot and qPCR to validate knockdown (quantified across 3 replicates for qPCR) were also performed.
For orientation: A western blot detects proteins with antibodies after separation by electrophoresis.

Entries after “also recorded” stand apart in the source; their conditions may differ.

Regarding “PTN shRNA: short hairpin RNA knocking down PTN, the ligand of PTPRZ1; exemplary sequence SEQ ID NO: 6 (CCGGAGGCAAGAAACAGGAGAAGATCTCGAGATCTTCTCCTGTTTCTTGCCTTTTTT)”, the “length of MST (somal translocation length)” value in the data set with oRG cells is “significantly reduced the length of MST; also recorded: decrease the length of somal translocation length”.

Take “PTPRZ1 shRNA: short hairpin RNA against PTPRZ1 mRNA, lentivirus-delivered; exemplary sequence SEQ ID NO: 5 (CCGGCCAGACAACAAGCACAAGAATCTCGAGATTCTTGTGCTTGTTGTCTGGTTTTT)”: the “length of MST (somal translocation length)” value in the data set on oRG cells is on record as “significantly reduced the length of MST; also recorded: decrease the length of somal translocation length”; in data set [1], “similarly impacted the length of MST; also recorded: decrease the length of somal translocation length”. Also, the somal translocation length result with oRG cells (primary samples, 3 biological replicates and 4 technical replicates each (FIG. 6A)) is “decrease the length of somal translocation length”. Moreover, in data set [2], the “invasive behavior of the PDX tumors” value is on record as “significantly decreased the invasive behavior”. Besides, in data set [3], the “Proliferation, difference shScr (Ctrl) vs shPTPRZ1 (KD)” value is listed as “not significant”. The “proportion of radial glia and other progenitor populations” value in data set [4] (1 week after lentiviral infection, vs scrambled hairpin) was “decrease in the proportion of both radial glia and other progenitor populations”. Also, the “expression of other key markers of radial glia identity” value in data set [4] (radial glia populations) was “down-regulated”. Further, in the data set on PTPRZ1, the PTPRZ1 protein knockdown result is listed as “validates protein knockdown”.
